Laboratory results from patent US20230051589A1, “COMPOUNDS AND COMPOSITIONS FOR TREATING CONDITIONS ASSOCIATED WITH NLRP ACTIVITY” (Novartis AG, priority 2018, published 2023).

Test system: IL-1β production in PMA-differentiated THP-1 cells
Experiment: IL-1β production in PMA-differentiated THP-1 cells stimulated with gramicidin (hTHP-1 assay, 2% fetal bovine serum; Procedures 1-3)
Assay type: cell-based, human
Conditions: Homo sapiens, THP-1, Table B3; hTHP-1 assay containing 2% fetal bovine serum, gramicidin stimulation, IL-1β readout; read-out: hTHP-1 IC50
How it was run: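 PMA-primed THP-1 cells (20 ng/ml PMA, 16-18 h) in RPMI with 2% FBS were pre-incubated with compounds for 1 h, from 100 μM downward in 3-fold steps (0.37% DMSO final), then stimulated with 5 μM gramicidin for 2 h. IL-1β in the supernatant was quantified by HTRF.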

IC50 [nM] | SMILES
1000 to 5000 | CN1CCCC(c2ccc(S(N)(=O)=NC(=O)Nc3c4c(cc5c3CC5)CCC4)c(F)c2)C1 (single isomer, unassigned) [Example 862, (R, R) or (S, R)-2-fluoro-4-(1-methylpiperidin-3-yl)-N′-((2,4,5,6-tetrahydro-1H-cyclobuta[f]inden-3-yl)carbamoyl)benzenesulfonimidamide]

Same assay, conditions: Table B3; hTHP-1 assay containing 2% fetal bovine serum, gramicidin stimulation, IL-1β readout; read-out: hTHP-1 IC50

SMILES | IC50 [nM]
CC(NC1CCC1)c1ccc(S(N)(=O)=NC(=O)Nc2c3c(cc4c2CC4)CCC3)c(F)c1 (single isomer, unassigned) [Example 850, (R, S) or (S, S) -4-(1-(cyclobutylamino)ethyl)-2-fluoro-N′-((2,4,5,6-tetrahydro-1H-cyclobuta[f]inden-3-yl)carbamoyl)benzenesulfonimidamide] | 5000 to 30000
COC1CCc2c(csc2S(N)(=O)=NC(=O)Nc2c3c(cc4c2CCC4)CCC3)C1 (single isomer, unassigned) [Example 853, (R, S) or (S, S)-N′-((1,2,3,5,6,7-hexahydro-s-indacen-4-yl)carbamoyl)-5-methoxy-4,5,6,7-tetrahydrobenzo[c]thiophene-1-sulfonimidamide] | > 30000
COC1CCc2c(csc2S(N)(=O)=NC(=O)Nc2c3c(cc4c2CCC4)CCC3)C1 (single isomer, unassigned) [Example 854, (S, S) or (R, S)-N′-((1,2,3,5,6,7-hexahydro-s-indacen-4-yl)carbamoyl)-5-methoxy-4,5,6,7-tetrahydrobenzo[c]thiophene-1-sulfonimidamide] | 5000 to 30000
COC1CCc2csc(S(N)(=O)=NC(=O)Nc3c4c(cc5c3CCC5)CCC4)c2C1 (single isomer, unassigned) [Example 855, (R, S) or (S, S)-N′-((1,2,3,5,6,7-hexahydro-s-indacen-4-yl)carbamoyl)-6-methoxy-4,5,6,7-tetrahydrobenzo[c]thiophene-1-sulfonimidamide] | > 30000
COC1CCc2csc(S(N)(=O)=NC(=O)Nc3c4c(cc5c3CCC5)CCC4)c2C1 (single isomer, unassigned) [Example 856, (S, S) or (R, S)-N′-((1,2,3,5,6,7-hexahydro-s-indacen-4-yl)carbamoyl)-6-methoxy-4,5,6,7-tetrahydrobenzo[c]thiophene-1-sulfonimidamide] | > 30000
COC1CCc2csc(S(N)(=O)=NC(=O)Nc3c4c(cc5c3CCC5)CCC4)c2C1 (single isomer, unassigned) [Example 858, (S, R) or (R, R)-N′-((1,2,3,5,6,7-hexahydro-s-indacen-4-yl)carbamoyl)-6-methoxy-4,5,6,7-tetrahydrobenzo[c]thiophene-1-sulfonimidamide] | 5000 to 30000
CN1CCCC(c2ccc(S(N)(=O)=NC(=O)Nc3c4c(cc5c3CC5)CCC4)c(F)c2)C1 (single isomer, unassigned) [Example 860, (R, S) or (S, S)-2-fluoro-4-(1-methylpiperidin-3-yl)-N′-((2,4,5,6-tetrahydro-1H-cyclobuta[f]inden-3-yl)carbamoyl)benzenesulfonimidamide] | > 30000
CN1CCCC(c2ccc(S(N)(=O)=NC(=O)Nc3c4c(cc5c3CC5)CCC4)c(F)c2)C1 (single isomer, unassigned) [Example 861, (S, S) or (R, S)-2-fluoro-4-(1-methylpiperidin-3-yl)-N′-((2,4,5,6-tetrahydro-1H-cyclobuta[f]inden-3-yl)carbamoyl)benzenesulfonimidamide] | > 30000
NS(=O)(=NC(=O)Nc1c2c(cc3c1CCC3)CCC2)c1ccc(C2CCN2)cc1 (single isomer, unassigned) [Example 864, (R, S) or (S, S)-4-(azetidin-2-yl)-N′-((1,2,3,5,6,7-hexahydro-5-indacen-4-yl)carbamoyl)benzenesulfonimidamide] | 5000 to 30000
NS(=O)(=NC(=O)Nc1c2c(cc3c1CCC3)CCC2)c1ccc(C2CCN2)cc1 (single isomer, unassigned) [Example 865, (S, S) or (R, S)-4-(azetidin-2-yl)-N′-((1,2,3,5,6,7-hexahydro-s-indacen-4-yl)carbamoyl)benzenesulfonimidamide] | 5000 to 30000

Continued, values first:

IC50 [nM] | SMILES
40 to 200 | NS(=O)(=NC(=O)Nc1c2c(cc3c1CC3)CCC2)c1sc(CN2CCC2)cc1F (single isomer, unassigned) [Example 843, (R) or (S)-5-(azetidin-1-ylmethyl)-3-fluoro-N′-((2,4,5,6-tetrahydro-1H-cyclobuta[f]inden-3-yl)carbamoyl)thiophene-2-sulfonimidamide]
1000 to 5000 | NS(=O)(=NC(=O)Nc1c2c(cc3c1CC3)CCC2)c1sc(CN2CCC2)cc1F (single isomer, unassigned) [Example 844, (S) or (R)-5-(azetidin-1-ylmethyl)-3-fluoro-N′-((2,4,5,6-tetrahydro-1H-cyclobuta[f]inden-3-yl)carbamoyl)thiophene-2-sulfonimidamide]
200 to 1000 | CC(NC1CCC1)c1ccc(S(N)(=O)=NC(=O)Nc2c3c(cc4c2CC4)CCC3)c(F)c1 (single isomer, unassigned) [Example 845, (R/S, R)-4-(1-(cyclobutylamino)ethyl)-2-fluoro-N′-((2,4,5,6-tetrahydro-1H-cyclobuta[f]inden-3-yl)carbamoyl)benzenesulfonimidamide]
200 to 1000 | CC(NC1CCC1)c1ccc(S(N)(=O)=NC(=O)Nc2c3c(cc4c2CC4)CCC3)c(F)c1 (single isomer, unassigned) [Example 847, (R, R) or (S, R) -4-(1-(cyclobutylamino)ethyl)-2-fluoro-N′-((2,4,5,6-tetrahydro-1H-cyclobuta[f]inden-3-yl)carbamoyl)benzenesulfonimidamide]
200 to 1000 | CC(NC1CCC1)c1ccc(S(N)(=O)=NC(=O)Nc2c3c(cc4c2CC4)CCC3)c(F)c1 (single isomer, unassigned) [Example 848, (S, R) or (R, R) -4-(1-(cyclobutylamino)ethyl)-2-fluoro-N′-((2,4,5,6-tetrahydro-1H-cyclobula[f]inden-3-yl)carbamoyl)benzenesulfonimidamide]
5000 to 30000 | CC(NC1CCC1)c1ccc(S(N)(=O)=NC(=O)Nc2c3c(cc4c2CC4)CCC3)c(F)c1 (single isomer, unassigned) [Example 849, (S, S) or (R, S) -4-(1-(cyclobutylamino)ethyl)-2-fluoro-N′-((2,4,5,6-tetrahydro-1H-cyclobuta[f]inden-3-yl)carbamoyl)benzenesulfonimidamide]
200 to 1000 | COC1CCc2c(csc2S(N)(=O)=NC(=O)Nc2c3c(cc4c2CCC4)CCC3)C1 (single isomer, unassigned) [Example 851, (R, R) or (S, R)-N′-((1,2,3,5,6,7-hexahydro-s-indacen-4-yl)carbamoyl)-5-methoxy-4,5,6,7-tetrahydrobenzo[c]thiophene-1-sulfonimidamide]
1000 to 5000 | COC1CCc2c(csc2S(N)(=O)=NC(=O)Nc2c3c(cc4c2CCC4)CCC3)C1 (single isomer, unassigned) [Example 852, (S, R) or (R, R)-N′-((1,2,3,5,6,7-hexahydro-s-indacen-4-yl)carbamoyl)-5-methoxy-4,5,6,7-tetrahydrobenzo[c]thiophene-1-sulfonimidamide]
1000 to 5000 | COC1CCc2csc(S(N)(=O)=NC(=O)Nc3c4c(cc5c3CCC5)CCC4)c2C1 (single isomer, unassigned) [Example 857, (R, R) or (S, R)-N′-((1,2,3,5,6,7-hexahydro-s-indacen-4-yl)carbamoyl)-6-methoxy-4,5,6,7-tetrahydrobenzo[c]thiophene-1-sulfonimidamide]
1000 to 5000 | CN1CCCC(c2ccc(S(N)(=O)=NC(=O)Nc3c4c(cc5c3CC5)CCC4)c(F)c2)C1 (single isomer, unassigned) [Example 859, (S, R) or (R, R)-2-fluoro-4-(1-methylpiperidin-3-yl)-N′-((2,4,5,6-tetrahydro-1H-cyclobuta[f]inden-3-yl)carbamoyl)benzenesulfonimidamide]
8 to 40 | CN[C@H](c1ccc(S(N)(=O)=NC(=O)Nc2c3c(cc4c2CC4)CCC3)s1)C1CC1 (single isomer, unassigned) [Example 866, (S, R) or (R, R)-5-(cyclopropyl(methylamino)methyl)-N′-((2,4,5,6-tetrahydro-1H-cyclobuta[f]inden-3-yl)carbamoyl)thiophene-2-sulfonimidamide]
1000 to 5000 | CN[C@H](c1ccc(S(N)(=O)=NC(=O)Nc2c3c(cc4c2CC4)CCC3)s1)C1CC1 (single isomer, unassigned) [Example 867, (S, S) or (R, S)-5-(cyclopropyl(methylamino)methyl)-N′-((2,4,5,6-tetrahydro-1H-cyclobuta[f]inden-3-yl)carbamoyl)thiophene-2-sulfonimidamide]
8 to 40 | CN[C@H](c1ccc(S(N)(=O)=NC(=O)Nc2c3c(cc4c2CC4)CCC3)s1)C1CC1 (single isomer, unassigned) [Example 868, (R, R) or (S, R)-5-(cyclopropyl(methylamino)methyl)-N′-((2,4,5,6-tetrahydro-1H-cyclobuta[f]inden-3-yl)carbamoyl)thiophene-2-sulfonimidamide]
200 to 1000 | CN[C@H](c1ccc(S(N)(=O)=NC(=O)Nc2c3c(cc4c2CC4)CCC3)s1)C1CC1 (single isomer, unassigned) [Example 869, (R, S) or (S, S)-5-(cyclopropyl(methylamino)methyl)-N′-((2,4,5,6-tetrahydro-1H-cyclobuta[f]inden-3-yl)carbamoyl)thiophene-2-sulfonimidamide]
40 to 200 | CNCc1csc(S(N)(=O)=NC(=O)Nc2c3c(cc4c2CC4)CCC3)c1F (single isomer, unassigned) [Example 870, (R) or (S) -3-fluoro-4-((methylamino)methyl)-N′-((2,4,5,6-tetrahydro-1H-cyclobuta[f]inden-3-yl)carbamoyl)thiophene-2-sulfonimidamide]
